Measured values published in patent US8686150B2 (Sanofi, priority 2011, dated 2014).

Molecular target: T1, human full-length recombinant PKC βII (Homo sapiens, UniProt P05771)
T1 construct: Active human full-length recombinant PKC βII; purchased Invitrogen GmbH, Darmstadt, Germany
Test: Determination of PKC βII inhibition (Caliper mobility-shift kinase assay, Fluorescein-RFARKGSLRQKNV peptide substrate)
Format: biochemical
Details: example compounds at a final concentration of 1.14 μM (±0.15 μM)
Method in brief: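 Compounds were tested at 1.14 μM final. Enzyme was activated by PS, DAG and CaCl2 in Hepes pH 7.4 with MgCl2, with substrate 3 μM and ATP 120 μM as pre-mix concentrations. After 60 min at 32 °C and an EDTA stop, Caliper separation gave fractional turnover, which was normalised to no-compound and no-enzyme controls.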

T1 sequence (P05771 1-673 isoform P05771-2): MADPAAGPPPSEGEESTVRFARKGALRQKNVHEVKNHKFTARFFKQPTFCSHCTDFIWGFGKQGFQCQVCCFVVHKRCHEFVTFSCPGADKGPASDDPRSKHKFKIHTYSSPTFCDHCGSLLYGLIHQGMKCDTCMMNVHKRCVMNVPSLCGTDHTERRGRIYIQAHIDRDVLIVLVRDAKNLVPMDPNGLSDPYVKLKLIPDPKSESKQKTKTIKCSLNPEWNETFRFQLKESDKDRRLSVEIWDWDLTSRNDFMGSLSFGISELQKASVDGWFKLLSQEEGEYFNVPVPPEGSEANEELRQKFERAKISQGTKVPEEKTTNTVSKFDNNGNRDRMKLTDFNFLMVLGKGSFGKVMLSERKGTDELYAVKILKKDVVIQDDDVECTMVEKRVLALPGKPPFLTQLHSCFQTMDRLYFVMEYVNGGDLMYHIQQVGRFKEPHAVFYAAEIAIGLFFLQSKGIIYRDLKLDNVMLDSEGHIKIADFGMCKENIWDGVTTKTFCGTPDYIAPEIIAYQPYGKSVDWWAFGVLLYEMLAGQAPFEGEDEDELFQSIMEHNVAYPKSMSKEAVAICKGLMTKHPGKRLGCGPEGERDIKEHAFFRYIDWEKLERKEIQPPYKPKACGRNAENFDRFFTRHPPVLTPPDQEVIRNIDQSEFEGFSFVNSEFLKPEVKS

Row | Compound | inhibition at 1.14 µM [%]
1 | CC[C@H]1CN(C(=O)c2cc(-c3ccc(O)c(F)c3)nc3[nH]nc(C)c23)CCN1 [Example 295, ((S)-3-Ethyl-piperazin-1-yl)-[6-(3-fluoro-4-hydroxy-phenyl)-3-methyl-1H-pyrazolo[3,4-b]pyridin-4-yl]-methanone] | 94
2 | Cc1n[nH]c2nc(-c3ccc(O)c(F)c3)cc(C(=O)N3CCCC4(CCNC4)C3)c12 (centres unmarked) [Example 346, (2,7-Diaza-spiro[4.5]dec-7-yl)-[6-(3-fluoro-4-hydroxy-phenyl)-3-methyl-1H-pyrazolo[3,4-b]pyridin-4-yl]-methanone] | 59
3 | O=C(c1cc(-c2ccc(O)cc2)nc2[nH]nc(C3CC3)c12)N1CCNCC1 [Example 55, [3-Cyclopropyl-6-(4-hydroxy-phenyl)-1H-pyrazolo[3,4-b]pyridin-4-yl]-piperazin-1-yl-methanone] | 27
4 | CC(=O)N1CCC(NC(=O)c2cc(-c3ccc(O)cc3)nc3[nH]nc(C)c23)CC1 [Example 277, 6-(4-Hydroxy-phenyl)-3-methyl-1H-pyrazolo[3,4-b]pyridine-4-carboxylic acid (1-acetyl-piperidin-4-yl)-amide] | 35
5 | Cc1n[nH]c2nc(-c3ccc(O)cc3)cc(C(=O)N3CCNCC3c3cc(F)cc(F)c3)c12 (centres unmarked) [Example 87, [2-(3,5-Difluoro-phenyl)-piperazin-1-yl]-[6-(4-hydroxy-phenyl)-3-methyl-1H-pyrazolo[3,4-b]pyridin-4-yl]-methanone] | 93
6 | Cc1n[nH]c2nc(-c3ccc(O)c(F)c3)cc(C(=O)N[C@@H]3CCCNC3)c12 [Example 305, 6-(3-Fluoro-4-hydroxy-phenyl)-3-methyl-1H-pyrazolo[3,4-b]pyridine-4-carboxylic acid (R)-piperidin-3-ylamide] | 83
7 | Cc1n[nH]c2nc(-c3ccc(O)cc3)cc(C(=O)N3CCN[C@H](C)C3)c12 [Example 189, [6-(4-Hydroxy-phenyl)-3-methyl-1H-pyrazolo[3,4-b]pyridin-4-yl]-((R)-3-methyl-piperazin-1-yl)-methanone] | 96
8 | Cc1cc(O)ccc1-c1cc(C(=O)N2CCNCC2C(F)(F)F)c2c(C)n[nH]c2n1 (centres unmarked) [Example 144, [6-(4-Hydroxy-2-methyl-phenyl)-3-methyl-1H-pyrazolo[3,4-b]pyridin-4-yl]-(2-trifluoromethyl-piperazin-1-yl)-methanone] | 82
9 | Cc1n[nH]c2nc(-c3ccc(O)cc3)cc(C(=O)N3CC4CN(Cc5ccccc5)CC4C3)c12 (centres unmarked) [Example 386, (5-Benzyl-hexahydro-pyrrolo[3,4-c]pyrrol-2-yl)-[6-(4-hydroxy-phenyl)-3-methyl-1H-pyrazolo[3,4-b]pyridin-4-yl]-methanone] | 51
10 | Cc1n[nH]c2nc(-c3ccc(O)cc3F)cc(C(=O)N3CC4(CCCC4)NCC3(C)C)c12 [Example 451, (8,8-Dimethyl-6,9-diaza-spiro[4.5]dec-9-yl)-[6-(2-fluoro-4-hydroxy-phenyl)-3-methyl-1H-pyrazolo[3,4-b]pyridin-4-yl]-methanone] | 104
11 | Cc1n[nH]c2nc(-c3ccc(O)c(F)c3)cc(C(=O)NCCC3CCCN3C)c12 (centres unmarked) [Example 316, 6-(3-Fluoro-4-hydroxy-phenyl)-3-methyl-1H-pyrazolo[3,4-b]pyridine-4-carboxylic acid [2-(1-methyl-pyrrolidin-2-yl)-ethyl]-amide] | 51
12 | Cc1n[nH]c2nc(-c3ccc(O)cc3)cc(C(=O)N3CCNCC3c3cccnc3)c12 (centres unmarked) [Example 374, [6-(4-Hydroxy-phenyl)-3-methyl-1H-pyrazolo[3,4-b]pyridin-4-yl]-(2-pyridin-3-yl-piperazin-1-yl)-methanone] | 99
13 | CCOc1cc(-c2cc(C(=O)N3CCNCC3)c3c(C)n[nH]c3n2)ccc1O [Example 15, [6-(3-Ethoxy-4-hydroxy-phenyl)-3-methyl-1H-pyrazolo[3,4-b]pyridin-4-yl]-piperazin-1-yl-methanone] | 35
14 | Cc1n[nH]c2nc(-c3ccc(O)cc3F)cc(C(=O)N3CC(C)(C)NCC34CCCC4)c12 [Example 437, (8,8-Dimethyl-6,9-diaza-spiro[4.5]dec-6-yl)-[6-(2-fluoro-4-hydroxy-phenyl)-3-methyl-1H-pyrazolo[3,4-b]pyridin-4-yl]-methanone] | 99
15 | CCc1n[nH]c2nc(-c3ccc(O)cc3)cc(C(=O)N3CCC4(CCCNC4)C3)c12 (centres unmarked) [Example 173, (2,7-Diaza-spiro[4.5]dec-2-yl)-[3-ethyl-6-(4-hydroxy-phenyl)-1H-pyrazolo[3,4-b]pyridin-4-yl]-methanone] | 58
16 | Cc1n[nH]c2nc(-c3ccc(O)cc3)cc(C(=O)N[C@@H]3CCC(=O)NC3)c12 [Example 208, 6-(4-Hydroxy-phenyl)-3-methyl-1H-pyrazolo[3,4-b]pyridine-4-carboxylic acid ((R)-6-oxo-piperidin-3-yl)-amide] | 88

Row | Compound | inhibition at 1.14 µM [%]
17 | CCCC1(NC(=O)c2cc(-c3ccc(O)cc3)nc3[nH]nc(C)c23)CCNCC1 [Example 118, 6-(4-Hydroxy-phenyl)-3-methyl-1H-pyrazolo[3,4-b]pyridine-4-carboxylic acid (4-propyl-piperidin-4-yl)-amide] | 98
18 | CCC(CCN)NC(=O)c1cc(-c2ccc(O)cc2F)nc2[nH]nc(C)c12 (centres unmarked) [Example 65, 6-(2-Fluoro-4-hydroxy-phenyl)-3-methyl-1H-pyrazolo[3,4-b]pyridine-4-carboxylic acid (3-amino-1-ethyl-propyl)-amide] | 94
19 | Cc1n[nH]c2nc(-c3ccc(O)c(F)c3)cc(C(=O)N3CC[C@H](N(C)C)C3)c12 [Example 348, ((S)-3-Dimethylamino-pyrrolidin-1-yl)-[6-(3-fluoro-4-hydroxy-phenyl)-3-methyl-1H-pyrazolo[3,4-b]pyridin-4-yl]-methanone] | 44
20 | Cc1n[nH]c2nc(-c3ccc(O)cc3F)cc(C(=O)N3CCC(C)(N)CC3)c12 [Example 418, (4-Amino-4-methyl-piperidin-1-yl)-[6-(2-fluoro-4-hydroxy-phenyl)-3-methyl-1H-pyrazolo[3,4-b]pyridin-4-yl]-methanone] | 30
21 | Cc1n[nH]c2nc(-c3ccc(O)cc3)cc(C(=O)NCC(C)(C)N)c12 [Example 133, 6-(4-Hydroxy-phenyl)-3-methyl-1H-pyrazolo[3,4-b]pyridine-4-carboxylic acid (2-amino-2-methyl-propyl)-amide] | 89
22 | Cc1n[nH]c2nc(-c3ccc(O)cc3)cc(C(=O)N3CCC(Nc4ccccc4)C3)c12 (centres unmarked) [Example 385, [6-(4-Hydroxy-phenyl)-3-methyl-1H-pyrazolo[3,4-b]pyridin-4-yl]-(3-phenylamino-pyrrolidin-1-yl)-methanone] | 24
23 | Cc1n[nH]c2nc(-c3ccc(O)cc3)cc(C(=O)N3CCCN(C)CC3)c12 [Example 269, [6-(4-Hydroxy-phenyl)-3-methyl-1H-pyrazolo[3,4-b]pyridin-4-yl]-(4-methyl-[1,4]diazepan-1-yl)-methanone] | 87
24 | COc1ccc(C2CNCCN2C(=O)c2cc(-c3ccc(O)cc3C)nc3[nH]nc(C)c23)cc1 (centres unmarked) [Example 140, [6-(4-Hydroxy-2-methyl-phenyl)-3-methyl-1H-pyrazolo[3,4-b]pyridin-4-yl]-[2-(4-methoxy-phenyl)-piperazin-1-yl]-methanone] | 98
25 | O=C(c1cc(-c2ccc(O)cc2)nc2[nH]nc(C(F)(F)F)c12)N1CCC2(CC1)CNC2 [Example 405, (2,7-Diaza-spiro[3.5]non-7-yl)-[6-(4-hydroxy-phenyl)-3-trifluoromethyl-1H-pyrazolo[3,4-b]pyridin-4-yl]-methanone] | 48
26 | Cc1n[nH]c2nc(-c3ccc(O)c(F)c3)cc(C(=O)NC3CC4(CC(N)C4)C3)c12 (centres unmarked) [Example 288, 6-(3-Fluoro-4-hydroxy-phenyl)-3-methyl-1H-pyrazolo[3,4-b]pyridine-4-carboxylic acid (6-amino-spiro[3.3]hept-2-yl)-amide] | 59
27 | Cc1n[nH]c2nc(-c3ccc(O)c(F)c3)cc(C(=O)N3CCC4(CC3)CNC4)c12 [Example 329, (2,7-Diaza-spiro[3.5]non-7-yl)-[6-(3-fluoro-4-hydroxy-phenyl)-3-methyl-1H-pyrazolo[3,4-b]pyridin-4-yl]-methanone] | 72
28 | Cc1n[nH]c2nc(-c3ccc(O)c(F)c3)cc(C(=O)N3CC[C@@H](C4(N)CC4)C3)c12 [Example 322, [(R)-3-(1-Amino-cyclopropyl)-pyrrolidin-1-yl]-[6-(3-fluoro-4-hydroxy-phenyl)-3-methyl-1H-pyrazolo[3,4-b]pyridin-4-yl]-methanone] | 68
29 | CCc1n[nH]c2nc(-c3ccc(O)cc3)cc(C(=O)N3CCC4CNCC43)c12 (centres unmarked) [Example 167, [3-Ethyl-6-(4-hydroxy-phenyl)-1H-pyrazolo[3,4-b]pyridin-4-yl]-(hexahydro-pyrrolo[3,4-b]pyrrol-1-yl)-methanone] | 58
30 | CCc1n[nH]c2nc(-c3ccc(O)cc3)cc(C(=O)N[C@@H]3CN4CCC3CC4)c12 [Example 162, (S)-3-Ethyl-6-(4-hydroxy-phenyl)-1H-pyrazolo[3,4-b]pyridine-4-carboxylic acid (1-aza-bicyclo[2.2.2]oct-3-yl)-amide] | 51
31 | Cc1n[nH]c2nc(-c3ccc(O)cc3)cc(C(=O)NC(CN(C)C)c3ccccc3)c12 (centres unmarked) [Example 132, 6-(4-Hydroxy-phenyl)-3-methyl-1H-pyrazolo[3,4-b]pyridine-4-carboxylic acid (2-dimethylamino-1-phenyl-ethyl)-amide] | 72
32 | CCN1CCCN(C(=O)c2cc(-c3ccc(O)cc3)nc3[nH]nc(C(F)(F)F)c23)CC1 [Example 414, (4-Ethyl-[1,4]diazepan-1-yl)-[6-(4-hydroxy-phenyl)-3-trifluoromethyl-1H-pyrazolo[3,4-b]pyridin-4-yl]-methanone] | 30
